Reference: publication PMC4734386 (The Journal of organic chemistry, 2015)

Biological target: porcine pancreatic elastase (PPE) (Sus scrofa, UniProt P00772)
Test: PPE enzyme assay
Assay type: biochemical

porcine pancreatic elastase (PPE), sequence (P00772 27-266): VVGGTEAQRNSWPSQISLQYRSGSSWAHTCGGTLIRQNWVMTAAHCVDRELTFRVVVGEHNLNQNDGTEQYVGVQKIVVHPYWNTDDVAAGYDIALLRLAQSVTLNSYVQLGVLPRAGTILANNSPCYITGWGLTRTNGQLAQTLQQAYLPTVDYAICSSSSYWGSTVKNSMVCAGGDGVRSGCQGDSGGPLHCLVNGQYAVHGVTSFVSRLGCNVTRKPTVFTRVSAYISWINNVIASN

IC50: 3.08 µM
SMILES: CC(C)(C)C(=O)Oc1ccc(S(=O)(=O)Nc2ccccc2C(=O)NCC(=O)O)cc1 [sivelestat]
